Assay results as given in US20260013504A1, “HERBICIDAL MIXTURE, HERBICIDAL COMPOSITION, METHOD, USE, AND KITS FOR CONTROLLING UNDESIRABLE VEGETATION” (ADAMA AGAN LTD., priority 2022, published 2026).

Assays:
Assay type in all cases: in vivo
Bromus japonicus = experiment: Pot experiment, soil treatment, control of Bromus japonicus (fresh weight, Colby); details: mixtures: both AIs at these rates, after 35 days
Aegilops tauschii = experiment: Pot experiment, soil treatment, control of Aegilops tauschii (fresh weight, Colby); details: mixtures: both AIs at these rates, after 35 days
Solanum nigrum = experiment: Pot experiment (glass greenhouse), soil treatment, control of Solanum nigrum (fresh weight, Colby)
Lithospermum arvense = experiment: Pot experiment, soil treatment, control of Lithospermum arvense (fresh weight, Colby)
Lolium multiflorum Lamk = experiment: Pot experiment, soil treatment, control of Lolium multiflorum Lamk (fresh weight, Colby); details: mixtures: both AIs at these rates, after 35 days
Galium aparine = experiment: Pot experiment, soil treatment, control of Galium aparine (fresh weight, Colby)
[1] = g ai/ha: pyroxasulfone 11.25, fluorochloridone 31.25, aclonifen 150, diflufenican 14.0625, terbutryn 140.625
[2] = g ai/ha: pyroxasulfone 22.5, fluorochloridone 62.5, aclonifen 300, diflufenican 28.125, terbutryn 281.25
[3] = g ai/ha: pyroxasulfone 45, fluorochloridone 125, aclonifen 600, diflufenican 56.25, terbutryn 562.5
[4] = g ai/ha: pyroxasulfone 90, fluorochloridone 250, aclonifen 1200, diflufenican 112.5, terbutryn 1125
[5] = g ai/ha: pyroxasulfone 180, fluorochloridone 500, aclonifen 2400, diflufenican 225, terbutryn 2250
[6] = g ai/ha: pyroxasulfone 360, fluorochloridone 1000, aclonifen 4800, diflufenican 450, terbutryn 4500

Structure (SMILES): O=C(Nc1ccc(F)cc1F)c1cccnc1Oc1cccc(C(F)(F)F)c1 [diflufenican, N-(2,4-difluorophenyl)-2-(3-(trifluoromethyl)phenoxy)-3-pyridinecarboxamide]
- Measured fresh weight inhibition rate (%) (Bromus japonicus; [1]): 59.8%
- Measured fresh weight survival rate (%) - E (Bromus japonicus; [1]): 40.2%
- Measured fresh weight inhibition rate (%) (Bromus japonicus; [2]): 73.2%
- Measured fresh weight survival rate (%) - E (Bromus japonicus; [2]): 26.8%
- Measured fresh weight inhibition rate (%) (Bromus japonicus; [3]): 80.4%
- Measured fresh weight survival rate (%) - E (Bromus japonicus; [3]): 19.6%
- Measured fresh weight inhibition rate (%) (Bromus japonicus; [4]): 95.9%
- Measured fresh weight survival rate (%) - E (Bromus japonicus; [4]): 4.1%
- Measured fresh weight inhibition rate (%) (Bromus japonicus; [5]): 100.0%
- Measured fresh weight survival rate (%) - E (Bromus japonicus; [5]): 0.0%
- Measured fresh weight inhibition rate (%) (Aegilops tauschii; [1]): 3.7%
- Measured fresh weight survival rate (%) - E (Aegilops tauschii; [1]): 96.3%
- Measured fresh weight inhibition rate (%) (Aegilops tauschii; [2]): 6.7%
- Measured fresh weight survival rate (%) - E (Aegilops tauschii; [2]): 93.3%
- Measured fresh weight inhibition rate (%) (Aegilops tauschii; [3]): 4.3%
- Measured fresh weight survival rate (%) - E (Aegilops tauschii; [3]): 95.7%
- Measured fresh weight inhibition rate (%) (Aegilops tauschii; [4]): 6.7%
- Measured fresh weight survival rate (%) - E (Aegilops tauschii; [4]): 93.3%
- Measured fresh weight inhibition rate (%) (Aegilops tauschii; [5]): 10.4%
- Measured fresh weight survival rate (%) - E (Aegilops tauschii; [5]): 89.6%
- Measured fresh weight inhibition rate (%) (Aegilops tauschii; [6]): 37.2%
- Measured fresh weight survival rate (%) - E (Aegilops tauschii; [6]): 62.8%
- Measured fresh weight survival rate (%) - E (Solanum nigrum; 14.0625 g ai/ha): 94.1%
- Measured fresh weight survival rate (%) - E (Solanum nigrum; 28.125 g ai/ha): 90.2%
- Measured fresh weight survival rate (%) - E (Solanum nigrum; 56.25 g ai/ha): 79.2%
- Measured fresh weight survival rate (%) - E (Solanum nigrum; 112.5 g ai/ha): 71.8%
- Measured fresh weight survival rate (%) - E (Solanum nigrum; 225 g ai/ha): 63.5%
- inhibition at 14.0625 g/ha (Solanum nigrum; Solanum nigrum, soil, 14.0625 g ai/ha, read-out: Measured fresh weight inhibition rate (%)): 5.9%
- inhibition at 28.125 g/ha (Solanum nigrum; Solanum nigrum, soil, 28.125 g ai/ha, read-out: Measured fresh weight inhibition rate (%)): 9.8%
- inhibition at 56.25 g/ha (Solanum nigrum; Solanum nigrum, soil, 56.25 g ai/ha, read-out: Measured fresh weight inhibition rate (%)): 20.8%
- inhibition at 112.5 g/ha (Solanum nigrum; Solanum nigrum, soil, 112.5 g ai/ha, read-out: Measured fresh weight inhibition rate (%)): 28.2%
- inhibition at 225 g/ha (Solanum nigrum; Solanum nigrum, soil, 225 g ai/ha, read-out: Measured fresh weight inhibition rate (%)): 36.5%
- Measured fresh weight survival rate (%) - E (Lithospermum arvense; 14.0625 g ai/ha): 33.3%
- Measured fresh weight survival rate (%) - E (Lithospermum arvense; 28.125 g ai/ha): 17.4%
- Measured fresh weight survival rate (%) - E (Lithospermum arvense; 56.25 g ai/ha): 15.9%
- Measured fresh weight survival rate (%) - E (Lithospermum arvense; 112.5 g ai/ha): 1.4%
- Measured fresh weight survival rate (%) - E (Lithospermum arvense; 225 g ai/ha): 0.0%
- inhibition at 14.0625 g/ha (Lithospermum arvense; Buglossoides arvensis, soil, 14.0625 g ai/ha, read-out: Measured fresh weight inhibition rate (%)): 66.7%
- inhibition at 28.125 g/ha (Lithospermum arvense; Buglossoides arvensis, soil, 28.125 g ai/ha, read-out: Measured fresh weight inhibition rate (%)): 82.6%
- inhibition at 56.25 g/ha (Lithospermum arvense; Buglossoides arvensis, soil, 56.25 g ai/ha, read-out: Measured fresh weight inhibition rate (%)): 84.1%
- inhibition at 112.5 g/ha (Lithospermum arvense; Buglossoides arvensis, soil, 112.5 g ai/ha, read-out: Measured fresh weight inhibition rate (%)): 98.6%
- inhibition at 225 g/ha (Lithospermum arvense; Buglossoides arvensis, soil, 225 g ai/ha, read-out: Measured fresh weight inhibition rate (%)): 100%
- Measured fresh weight inhibition rate (%) (Lolium multiflorum Lamk; [1]): 87.0%
- Measured fresh weight survival rate (%) - E (Lolium multiflorum Lamk; [1]): 13.0%
- Measured fresh weight inhibition rate (%) (Lolium multiflorum Lamk; [2]): 88.0%
- Measured fresh weight survival rate (%) - E (Lolium multiflorum Lamk; [2]): 12.0%
- Measured fresh weight inhibition rate (%) (Lolium multiflorum Lamk; [3]): 93.2%
- Measured fresh weight survival rate (%) - E (Lolium multiflorum Lamk; [3]): 6.8%
- Measured fresh weight inhibition rate (%) (Lolium multiflorum Lamk; [4]): 99.5%
- Measured fresh weight survival rate (%) - E (Lolium multiflorum Lamk; [4]): 0.5%
- Measured fresh weight inhibition rate (%) (Lolium multiflorum Lamk; [5]): 100.0%
- Measured fresh weight survival rate (%) - E (Lolium multiflorum Lamk; [5]): 0.0%
- Measured fresh weight inhibition rate (%) (Lolium multiflorum Lamk; [6]): 100.0%
- Measured fresh weight survival rate (%) - E (Lolium multiflorum Lamk; [6]): 0.0%
- Measured fresh weight survival rate (%) - E (Galium aparine; 14.0625 g ai/ha): 38.4%
- Measured fresh weight survival rate (%) - E (Galium aparine; 28.125 g ai/ha): 27.4%
- Measured fresh weight survival rate (%) - E (Galium aparine; 56.25 g ai/ha): 26.0%
- Measured fresh weight survival rate (%) - E (Galium aparine; 112.5 g ai/ha): 15.1%
- Measured fresh weight survival rate (%) - E (Galium aparine; 225 g ai/ha): 1.4%
- inhibition at 14.0625 g/ha (Galium aparine; Galium aparine, soil, 14.0625 g ai/ha, read-out: Measured fresh weight inhibition rate (%)): 61.6%
- inhibition at 28.125 g/ha (Galium aparine; Galium aparine, soil, 28.125 g ai/ha, read-out: Measured fresh weight inhibition rate (%)): 72.6%
- inhibition at 56.25 g/ha (Galium aparine; Galium aparine, soil, 56.25 g ai/ha, read-out: Measured fresh weight inhibition rate (%)): 74%
- inhibition at 112.5 g/ha (Galium aparine; Galium aparine, soil, 112.5 g ai/ha, read-out: Measured fresh weight inhibition rate (%)): 84.9%
- inhibition at 225 g/ha (Galium aparine; Galium aparine, soil, 225 g ai/ha, read-out: Measured fresh weight inhibition rate (%)): 98.6%
